# Measurements taken from patent publication US10308643B2, “Heterocyclic compound” (Takeda Pharmaceutical Company Limited, priority 2015, dated 2019).
# Columns and labels:
# Format in all cases: biochemical
# HDAC9 enzyme = target: T1, HDAC9 enzyme (Homo sapiens, UniProt Q9UKV0); experiment: HDAC9 Enzyme Inhibitory Assay (HDAC-Glo class IIa); conditions: 1 μM test compound, wells without enzyme = 100% inhibition; for inhibition at 1 µM: read-out: HDAC9 inhibitory rate (%) (1 μM)
# T1 construct: transducing full length HDAC9 gene into Sf-9 insect cells; made in house; host or cells: Sf-9 insect cells
# In short: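 Full-length human HDAC9 from Sf-9 cells, Ni-NTA purified, preincubated with compound for 60 min at room temperature in Tris-HCl pH 7.5 buffer (MgCl2, KCl, NaCl, glutathione, Tween-20). HDAC-Glo class IIa substrate-developer added; luminescence read after 20 min, with no-enzyme wells defining 100% inhibition.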
# HDAC6 enzyme = target: T2, HDAC6 enzyme (Homo sapiens, UniProt Q9UBN7); experiment: HDAC1/6 Enzyme Inhibitory Assay (HDAC-Glo I/II Assay kit), HDAC6; conditions: 1 μM test compound, wells without enzyme = 100% inhibition; for inhibition at 1 µM: read-out: HDAC6 inhibitory rate (%) (1 μM)
# T2 construct: transducing full length HDAC1 and HDAC6 genes into Sf-9 insect cells; GST; purchased SignalChem; host or cells: Sf-9 insect cells
# T2 sequence (Q9UBN7 1-1215): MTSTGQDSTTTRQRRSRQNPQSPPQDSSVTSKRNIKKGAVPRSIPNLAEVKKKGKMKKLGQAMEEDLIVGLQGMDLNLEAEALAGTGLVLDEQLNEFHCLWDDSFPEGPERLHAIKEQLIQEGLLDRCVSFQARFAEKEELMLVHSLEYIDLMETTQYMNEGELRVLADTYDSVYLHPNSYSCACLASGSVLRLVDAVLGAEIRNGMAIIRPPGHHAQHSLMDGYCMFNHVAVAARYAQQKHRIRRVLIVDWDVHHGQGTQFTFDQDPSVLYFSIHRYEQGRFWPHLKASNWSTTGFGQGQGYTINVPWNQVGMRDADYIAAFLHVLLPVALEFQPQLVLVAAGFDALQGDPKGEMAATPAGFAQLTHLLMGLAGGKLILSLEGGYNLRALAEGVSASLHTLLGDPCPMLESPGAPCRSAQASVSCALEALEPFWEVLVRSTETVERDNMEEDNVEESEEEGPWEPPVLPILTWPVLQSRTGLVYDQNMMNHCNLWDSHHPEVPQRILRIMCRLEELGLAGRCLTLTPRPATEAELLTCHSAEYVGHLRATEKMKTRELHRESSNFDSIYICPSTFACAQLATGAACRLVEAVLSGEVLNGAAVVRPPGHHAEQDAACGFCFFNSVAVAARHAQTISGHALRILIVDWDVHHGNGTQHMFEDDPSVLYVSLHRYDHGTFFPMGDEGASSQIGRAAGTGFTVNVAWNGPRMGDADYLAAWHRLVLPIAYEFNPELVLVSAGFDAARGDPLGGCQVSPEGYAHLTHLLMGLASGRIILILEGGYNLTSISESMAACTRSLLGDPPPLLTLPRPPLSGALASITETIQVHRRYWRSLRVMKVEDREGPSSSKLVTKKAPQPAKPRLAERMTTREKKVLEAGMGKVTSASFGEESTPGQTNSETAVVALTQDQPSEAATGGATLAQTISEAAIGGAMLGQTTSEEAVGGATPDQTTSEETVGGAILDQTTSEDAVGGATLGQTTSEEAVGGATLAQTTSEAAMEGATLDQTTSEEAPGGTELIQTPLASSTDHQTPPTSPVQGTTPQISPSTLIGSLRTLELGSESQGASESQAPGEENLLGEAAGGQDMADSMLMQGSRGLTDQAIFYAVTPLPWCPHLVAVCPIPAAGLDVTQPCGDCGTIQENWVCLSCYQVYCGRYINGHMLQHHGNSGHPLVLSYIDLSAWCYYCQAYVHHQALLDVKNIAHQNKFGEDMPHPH
# In short: (§1)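 Steps: compound in pH 7.5 Tris buffer plus enzyme (full-length HDAC1 or HDAC6 from Sf-9, GST-purified), 60 min at room temperature; add HDAC-Glo substrate-developer; react 20 min; read luminescence. Relative activity is calculated against enzyme-free wells taken as full inhibition.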
# HDAC1 enzyme = target: T3, HDAC1 enzyme (Homo sapiens, UniProt Q13547); experiment: HDAC1/6 Enzyme Inhibitory Assay (HDAC-Glo I/II Assay kit), HDAC1; conditions: 1 μM test compound, wells without enzyme = 100% inhibition; for inhibition at 1 µM: read-out: HDAC1 inhibitory rate (%) (1 μM)
# T3 construct: transducing full length HDAC1 and HDAC6 genes into Sf-9 insect cells; GST; purchased SignalChem; host or cells: Sf-9 insect cells
# In short: as §1
# T3 sequence (Q13547 whole entry): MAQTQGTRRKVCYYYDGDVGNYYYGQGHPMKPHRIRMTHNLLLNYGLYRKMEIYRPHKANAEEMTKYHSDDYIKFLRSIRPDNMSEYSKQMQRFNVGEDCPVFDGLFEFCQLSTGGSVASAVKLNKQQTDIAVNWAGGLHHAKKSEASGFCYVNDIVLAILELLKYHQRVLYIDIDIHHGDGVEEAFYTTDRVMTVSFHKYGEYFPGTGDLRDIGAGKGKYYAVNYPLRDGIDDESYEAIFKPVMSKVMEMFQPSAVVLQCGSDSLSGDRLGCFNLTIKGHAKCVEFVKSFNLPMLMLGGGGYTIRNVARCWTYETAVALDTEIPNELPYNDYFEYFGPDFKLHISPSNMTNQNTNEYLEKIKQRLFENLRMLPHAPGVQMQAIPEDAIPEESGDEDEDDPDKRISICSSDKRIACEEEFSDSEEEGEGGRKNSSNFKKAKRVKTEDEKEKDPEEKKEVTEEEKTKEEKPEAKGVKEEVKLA
# T1 sequence (Q9UKV0 whole entry, species assumed): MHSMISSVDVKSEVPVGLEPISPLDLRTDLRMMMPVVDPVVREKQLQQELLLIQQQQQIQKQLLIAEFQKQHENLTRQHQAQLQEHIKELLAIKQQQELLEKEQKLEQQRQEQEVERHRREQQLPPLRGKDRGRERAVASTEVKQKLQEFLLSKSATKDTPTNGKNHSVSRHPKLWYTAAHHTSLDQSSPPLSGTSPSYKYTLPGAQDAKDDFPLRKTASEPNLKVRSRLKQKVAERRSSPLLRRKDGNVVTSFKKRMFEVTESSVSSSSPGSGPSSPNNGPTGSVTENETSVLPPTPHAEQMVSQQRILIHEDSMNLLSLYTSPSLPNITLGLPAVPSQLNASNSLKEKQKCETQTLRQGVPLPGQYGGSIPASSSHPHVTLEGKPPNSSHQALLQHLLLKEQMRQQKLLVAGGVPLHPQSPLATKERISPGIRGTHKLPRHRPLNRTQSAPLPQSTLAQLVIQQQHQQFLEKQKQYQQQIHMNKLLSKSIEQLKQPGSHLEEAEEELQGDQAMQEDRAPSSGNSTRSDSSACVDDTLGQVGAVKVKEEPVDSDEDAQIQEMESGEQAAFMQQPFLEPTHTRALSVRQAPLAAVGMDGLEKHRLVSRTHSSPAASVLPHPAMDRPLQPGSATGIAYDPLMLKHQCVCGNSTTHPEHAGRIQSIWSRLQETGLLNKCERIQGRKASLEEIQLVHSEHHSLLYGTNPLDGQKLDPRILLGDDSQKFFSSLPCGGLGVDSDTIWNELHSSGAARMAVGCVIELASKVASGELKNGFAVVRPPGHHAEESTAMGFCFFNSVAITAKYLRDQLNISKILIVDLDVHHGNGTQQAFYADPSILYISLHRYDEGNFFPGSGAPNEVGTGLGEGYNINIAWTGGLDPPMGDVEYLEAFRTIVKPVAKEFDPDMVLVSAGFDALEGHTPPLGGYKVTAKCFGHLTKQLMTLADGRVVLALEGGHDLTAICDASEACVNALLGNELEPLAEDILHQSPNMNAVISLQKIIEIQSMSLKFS
Compound,inhibition at 1 µM (HDAC9 enzyme),inhibition at 1 µM (HDAC6 enzyme),inhibition at 1 µM (HDAC1 enzyme),HDAC9 inhibitory rate (%) (1 μM) (HDAC9 enzyme),HDAC6 inhibitory rate (%) (1 μM) (HDAC6 enzyme),HDAC1 inhibitory rate (%) (1 μM) (HDAC1 enzyme)
"CC(C)(O)CC(=O)N[C@@H]1CCCC[C@H]1N1Cc2ccc(-c3noc(C(F)(F)F)n3)cc2C1=O [Example 96, 3-hydroxy-3-methyl-N-((1R,2R)-2-(1-oxo-6-(5-(trifluoromethyl)-1,2,4-oxadiazol-3-yl)-1,3-dihydro-2H-isoindol-2-yl)cyclohexyl)butanamide]",50%,101%,10%,,,
"O=C(Cc1ccc(F)cc1)N1CCC(N2Cc3ncc(-c4noc(C(F)(F)F)n4)cc3C2=O)C1 (stereo not drawn) [Example 74, 6-(1-((4-fluorophenyl)acetyl)pyrrolidin-3-yl)-3-(5-(trifluoromethyl)-1,2,4-oxadiazol-3-yl)-6,7-dihydro-5H-pyrrolo[3,4-b]pyridin-5-one]",90%,86%,33%,,,
"O=C(N[C@@H]1CCCC[C@H]1N1Cc2ccc(-c3noc(C(F)(F)F)n3)cc2C1=O)N1C2CCCC1COC2 [Example 167, N-((1R,2R)-2-(1-oxo-6-(5-(trifluoromethyl)-1,2,4-oxadiazol-3-yl)-1,3-dihydro-2H-isoindol-2-yl)cyclohexyl)-3-oxa-9-azabicyclo[3.3.1]nonane-9-carboxamide]",34%,101%,7%,,,
"CC1CC1C(=O)N[C@@H]1CCCC[C@H]1N1Cc2ccc(-c3noc(C(F)(F)F)n3)cc2C1=O (stereo partly drawn) [Example 102, 2-methyl-N-((1R,2R)-2-(1-oxo-6-(5-(trifluoromethyl)-1,2,4-oxadiazo-3-yl)-1,3-dihydro-2H-isoindol-2-yl)cyclohexyl) cyclopropanecarboxamide]",52%,99%,7%,,,
"O=C1CC(C(=O)N[C@@H]2CCCCC2N2Cc3ccc(-c4noc(C(F)(F)F)n4)cc3C2=O)CN1 (stereo in doubt) [Example 131, (3R)-5-oxo-N-((1R,2R)-2-(1-oxo-6-(5-(trifluoromethyl)-1,2,4-oxadiazol-3-yl)-1,3-dihydro-2H-isoindol-2-yl)cyclohexyl)pyrrolidine-3-carboxamide]",31%,88%,0%,,,
"CC(C)(C)OC(=O)N[C@H]1CCCC[C@H]1N1Cc2ccc(-c3noc(C(F)(F)F)n3)cc2C1=O [Example 85, tert-butyl ((1S,2R)-2-(1-oxo-6-(5-(trifluoromethyl)-1,2,4-oxadiazol-3-yl)-1,3-dihydro-2H-isoindol-2-yl)cyclohexyl)carbamate]",67%,98%,41%,,,
"CC(C)(C)OC(=O)N[C@@H]1CCC[C@H]1N1Cc2ccc(-c3noc(C(F)(F)F)n3)cc2C1=O [Example 140, tert-butyl ((1R,2R)-2-(1-oxo-6-(5-(trifluoromethyl)-1,2,4-oxadiazol-3-yl)-1,3-dihydro-2H-isoindol-2-yl)cyclopentyl)carbamate]",41%,39%,27%,,,
"CN1CC(C(=O)N[C@@H]2CCCC[C@H]2N2Cc3ccc(-c4noc(C(F)(F)F)n4)cc3C2=O)CC1=O (stereo partly drawn) [Example 120, 1-methyl-5-oxo-N-((1R,2R)-2-(1-oxo-6-(5-(trifluoromethyl)-1,2,4-oxadiazol-3-yl)-1,3-dihydro-2H-isoindol-2-yl)cyclohexyl)pyrrolidine-3-carboxamide]",37%,79%,-3%,,,
"Cn1cnc(C(=O)N[C@@H]2CCCC[C@H]2N2Cc3ccc(-c4noc(C(F)(F)F)n4)cc3C2=O)c1 [Example 101, 1-methyl-N-((1R,2R)-2-(1-oxo-6-(5-(trifluoromethyl)-1,2,4-oxadiazol-3-yl)-1,3-dihydro-2H-isoindol-2-yl)cyclohexyl)-1H-imidazole-4-carboxamide]",68%,98%,12%,,,
"CC(C)(C)OC(=O)N1CC[C@H](N2Cc3cc(-c4noc(C(F)(F)F)n4)ccc3C2=O)[C@H](c2ccccc2)C1 (relative stereo) [Example 78, tert-butyl cis-4-(1-oxo-5-(5-(trifluoromethyl)-1,2,4-oxadiazol-3-yl)-1,3-dihydro-2H-isoindol-2-yl)-3-phenylpiperidine-1-carboxylate]",76%,11%,-3%,,,

# The remaining lines, values ahead:
inhibition at 1 µM (HDAC9 enzyme),inhibition at 1 µM (HDAC6 enzyme),inhibition at 1 µM (HDAC1 enzyme),HDAC9 inhibitory rate (%) (1 μM) (HDAC9 enzyme),HDAC6 inhibitory rate (%) (1 μM) (HDAC6 enzyme),HDAC1 inhibitory rate (%) (1 μM) (HDAC1 enzyme),Compound
34%,99%,5%,,,,"O=C(N[C@@H]1CCCC[C@H]1N1Cc2ccc(-c3noc(C(F)(F)F)n3)cc2C1=O)N1CC(F)(F)C1 [Example 162, 3,3-difluoro-N-((1R,2R)-2-(1-oxo-6-(5-(trifluoromethyl)-1,2,4-oxadiazol-3-yl)-1,3-dihydro-2H-isoindol-2-yl)cyclohexyl)azetidine-1-carboxamide]"
,,,97%,98%,68%,"O=C(N[C@H]1CCOC[C@H]1N1Cc2ccc(-c3noc(C(F)(F)F)n3)cc2C1=O)C1CC1(F)F (single isomer, unassigned) [Example 214, (1R) or (1S)-2,2-difluoro-N-((3S,4S)-3-(1-oxo-6-(5-(trifluoromethyl)-1,2,4-oxadiazol-3-yl)-1,3-dihydro-2H-isoindol-2-yl)tetrahydro-2H-pyran-4-yl)cyclopropanecarboxamide]"
,,,64%,100%,16%,"CC1(C(=O)N[C@@H]2CCCC[C@H]2N2Cc3ccc(-c4noc(C(F)(F)F)n4)cc3C2=O)CC1(F)F (stereo partly drawn) [Example 170, 2,2-difluoro-1-methyl-N-((1R,2R)-2-(1-oxo-6-(5-(trifluoromethyl)-1,2,4-oxadiazol-3-yl)-1,3-dihydro-2H-isoindol-2-yl)cyclohexyl) cyclopropanecarboxamide]"
23%,99%,2%,,,,"O=C(N[C@@H]1CCCC[C@H]1N1Cc2ccc(-c3noc(C(F)(F)F)n3)cc2C1=O)N1CC2CCC(C1)O2 [Example 146, N-((1R,2R)-2-(1-oxo-6-(5-(trifluoromethyl)-1,2,4-oxadiazol-3-yl)-1,3-dihydro-2H-isoindol-2-yl)cyclohexyl)-8-oxa-3-azabicyclo[3.2.1]octane-3-carboxamide]"
23%,96%,5%,,,,"O=C(N[C@@H]1CCCC[C@H]1N1Cc2ccc(-c3noc(C(F)(F)F)n3)cc2C1=O)N1CCS(=O)(=O)CC1 [Example 168, N-((1R,2R)-2-(1-oxo-6-(5-(trifluoromethyl)-1,2,4-oxadiazol-3-yl)-1,3-dihydro-2H-isoindol-2-yl)cyclohexyl)thiomorpholine-4-carboxamide 1,1-dioxide]"
54%,100%,14%,,,,"CN(C(=O)N[C@@H]1CCCC[C@H]1N1Cc2ccc(-c3noc(C(F)(F)F)n3)cc2C1=O)C1CC1 [Example 155, 1-cyclopropyl-1-methyl-3-((1R,2R)-2-(1-oxo-6-(5-(trifluoromethyl)-1,2,4-oxadiazol-3-yl)-1,3-dihydro-2H-isoindol-2-yl)cyclohexyl)urea]"
